Experimental data reported in US20150051210A1, “Tyrosine Kinase Inhibitor Combinations and their Use” (Novartis AG, priority 2012, published 2015).

Columns and labels:
Format in all cases: cell-based
[1] = system: phosphorylation of MET, FRS2, ERK, AKT in RT-112; experiment: Western blots of protein phosphorylation in RT-112 cells
Protocol: Western Blots (Figures not Shown) MKN-45 and RT-112 cells were treated in 6-well plates for 2 hours and 18 hours in the presence or absence of purified protein (rhFGF7, rhNRG1-31, or rhHGF), and/or inhibitor (Cpd. B, Cpd. A, BGJ398). Following wash with ice-cold PBS, cells were lysed with RIPA buffer (Thermo) containing phosphatase (Thermo) and proteinase (Roche) inhibitor cocktails. Total protein was quantified by bicinchoninic protein assay (Pierce). Aliquots of 20 μg were resolved by electrophoresis on NuPAGE SDS-PAGE 4-12% BIS-Tris gels before transfer to nitrocellulose membranes. Membranes were blocked for one hour at room temperature before overnight incubation at 4° C. with the following primary antibodies (source rabbit, 1:1000 final dilution): anti-phospho-Akt (Ser473), anti-phospho-MET (Tyr1234/1235), anti-phospho-MAPK/ERK(1/2) (Thr202/Tyr204), anti-AKT, anti-MAPK/Erk(1/2), and anti-α/β-Tubulin . Anti-MET was probed at 1:800 final dilution An internal antibody was used for phospho-FRS2(Y346) (1:1500 dilution). Membranes were then washed 3 times in PBS+0.1% Tween before addition of secondary antibody, IRDye 680LT goat anti-rabbit IgG , dilution 1:15000. After one hour at room temperature, membranes were washed and bands were visualized using an Odyssey Infrared Imager.

RT-112 cells = experiment: RT-112 Dual Inhibition: reversal of rescue with selective inhibitors, CellTiter-Glo cell viability; details: RT-112, rhHGF or rhNRG-1 250 ng/ml, 96 h; BGJ398 100 nM, Cpd. A/Cpd. B 500 nM, Lapatinib 1.5 μM; FIG. 5, FIG. 6
Protocol: RT-112 Secretome screen: The basic format was identical to the MKN-45 secretome screen with slight modifications. RT-112 cells were plated in EMEM+10% in white, tissue-culture treated 384-well plates at 1000 cells/20 μl/well and allowed to attach overnight. Supernatant from library-transfected HEK293T/17 cells was transferred as described above for the MKN-45 secretome screen. Purified proteins rhNRG1-31 and rhTGFα were added as positive controls, at a final concentration of 150 ng/ml. Following addition of supernatants and purified protein controls, BGJ398 diluted in DMEM was added at 10 μl/well for a final assay concentration of 100 nM. Cell viability was measured after 72 hours using CellTiter-Glo as described above. (FIG. 2)
RT-112 Dual Inhibition: The format for the RT-112 dual inhibition experiment was similar to that described for MKN-45 with the following modifications. RT-112 cells were plated at 1000 cells/20 μl/well. Solutions of rhHGF and rhNRG-1 were added to achieve a final concentration of 250 ng/ml. Single and dual inhibition conditions were prepared as follows: BGJ398, Cpd. A, Cpd. B, Lapatinib, BGJ398 and Cpd. A, BGJ398 and Cpd. B, BGJ398 and Lapatinib. Final concentrations for each compound, whether single or combined, were as follows: 100nM for BGJ398, 500 nM for Cpd. A and Cpd. B, and 1.5 μM for Lapatinib. After 96 hours cell viability was measured by CellTiter-Glo as previously described. (FIG. 5, FIG. 6).

KYM-1 cells = experiment: Combination assay (concentration matrix, resazurin, Loewe synergy) in KYM-1; details: KYM-1, checkerboard layout, monolayer / non-adherent / semi-solid media
Protocol: (§1) Combinatorial anti-proliferative effects of Cpd. B (“B) in the tables below) and BGJ398 (“C” in the tables below) were measured in KYM-1, MG-63, and Hs-683 cells on 96-well-plates using the concentration matrix depicted below:
(§2) Cells were grown under three different conditions (see FIG. 7): Experiments labeled “monolayer” were conducted on regular tissue culture plates, allowing cells to adhere and eventually form a monolayer. Cells were seeded on 3 plates per experiment (triplicates) in standard growth media as described above at a density of 5000 per well. Six to eight wells on a separate plate were seeded to quantify the amount of viable cells at the point of compound addition. […] At the same time, viable cells on the separate plate mentioned above were quantified using a resazurin sodium salt dye reduction readout. […] Quantification of Synergy was done using the methods described in G. R. Zimmermann et al., Drug Discovery Today, Vol. 12, No. ½, 2007, pages 34 to 42, and especially J. Lehár et al., Nature Biotechnology Vol. 27, No. 7, 2009, pages 659 to 666, in short by iteratively calculating the Loewe additive response ILoewe (X, Y) at each dose matrix point from the single-agent response curves, and then summing the differences between ILoewe and the experimental data. […]

MG-63 cells = experiment: Combination assay (concentration matrix, resazurin, Loewe synergy) in MG-63; details: MG-63, semi-solid media
Protocol: as §1, §2

CCN1CCN(c2ccc(Nc3cc(N(C)C(=O)Nc4c(Cl)c(OC)cc(OC)c4Cl)ncn3)cc2)CC1 [BGJ398, 3-(2,6-dichloro-3,5-dimethoxy-phenyl)-1-{6-[4-(4-ethylpiperazin-1-yl)-phenylamino]-pyrimidin-4-yl}-1-methyl-urea]
FRS2 and ERK phosphorylation ([1]; RT-112, absence of ligands): reduced both FRS2 and ERK phosphorylation | activity on cell viability (reversal of rescue) (RT-112 cells): active | growth suppression (KYM-1 cells): partial growth suppression | growth inhibition (MG-63 cells): strong growth inhibition

CNC(=O)c1ccc(-c2cnc3ncc(Cc4ccc5ncccc5c4)n3n2)cc1F [Cpd. B, 2-fluoro-N-methyl-4-[(7-quinolin-6-yl-methyl)-imidazo[1,2-b]triazin-2-yl]benzamide]
prevention of HGF rescue of ERK phosphorylation ([1]; RT-112, BGJ398 plus HGF, simultaneous addition): prevented this rescue effect | MET phosphorylation ([1]; RT-112, absence of ligands): specifically inhibited MET phosphorylation | activity on cell viability (reversal of rescue) (RT-112 cells): not sufficient | growth suppression (KYM-1 cells): no effect
